Biological target: T1, sortase A (SrtA) (Staphylococcus aureus, UniProt Q2FV99)
T1 construct: recombinant SrtAΔN59
Assay: FRET peptide-cleavage assay with purified recombinant SrtA; supported by fluorescence quenching (Ka = […] L/mol) and reversibility by dilution
Format: biochemical

T1 sequence (Q2FV99 60-206): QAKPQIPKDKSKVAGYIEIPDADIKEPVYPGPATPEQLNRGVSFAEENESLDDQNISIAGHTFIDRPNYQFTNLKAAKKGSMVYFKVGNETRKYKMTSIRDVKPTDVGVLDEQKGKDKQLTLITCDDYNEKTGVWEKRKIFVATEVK

Structure (SMILES): O=C(/C=C/c1ccc(O)cc1)c1ccc(O)cc1O [ISL, isoliquiritigenin]
- IC50: 52.1 µM

Reference: publication PMC12660299, “Isoliquiritigenin Attenuates Staphylococcus aureus Adhesion and Invasion to Counteract Staphylococcus aureus Pathogenicity and Infection” (Frontiers in Cellular and Infection Microbiology, 2025)
